Activity calls are given as the source filed them. No cut-off for these calls is given here.
Experiments:
[1] = tested on: dsDNA; assay: Binding affinity to double stranded DNA (unknown origin) assessed as thermal stabilization at 1 to 8 uM measured at 10 to 95 degreeC by FRET analysis; format: nucleic-acid assay; conditions: dose 1-8 µM
[2] = tested on: Quadruplex DNA; assay: Binding affinity to FAM/TAMRA-labelled parallel c-MYC Pu24T G4 DNA (unknown origin) assessed as thermal stabilization at 1 to 8 uM measured at 10 to 95 degreeC by FRET analysis; format: nucleic-acid assay; conditions: dose 1-8 µM
[3] = tested on: Quadruplex DNA; assay: Binding affinity to FAM/TAMRA-labelled c-MYC Pu22 G4 DNA (unknown origin) assessed as thermal stabilization at 1 to 8 uM measured at 10 to 95 degreeC by FRET analysis; format: nucleic-acid assay; conditions: dose 1-8 µM
[4] = tested on: Quadruplex DNA; assay: Binding affinity to parallel c-MYC Pu24T G4 DNA (unknown origin) assessed as change in topology at 5 uM by CD spectra analysis; format: nucleic-acid assay
[5] = tested on: Quadruplex DNA; assay: Binding affinity to FAM/TAMRA-labelled c-KIT2 G4 DNA (unknown origin) assessed as thermal stabilization at 1 to 8 uM measured at 10 to 95 degreeC by FRET analysis; format: nucleic-acid assay; conditions: dose 1-8 µM
[6] = tested on: Quadruplex DNA; assay: Binding affinity to FAM/TAMRA-labelled parallel c-MYC Pu24T G4 DNA (unknown origin) assessed as thermal stabilization in the presence of 15 equivalents of double stranded DNA by FRET competition assay; format: nucleic-acid assay
[7] = Antitumor activity against KPC mouse pancreatic cancer organoid expressing lentiviral modified GFP co-cultured with WT C57BL/6J mouse pancreatic stellate cells expressing mKate2 assessed as inhibition of cell growth incubated for 5 days by resazurin dye based fluorescence microscopic analysis; format: functional, tissue-based; conditions: 120 h
[8] = tested on: Quadruplex DNA; assay: Binding affinity to FAM/TAMRA-labelled parallel c-MYC Pu24T G4 DNA (unknown origin) assessed as thermal stabilization by measuring change in melting temperature at 2 uM in the presence of 100 equivalents of double stranded DNA by FRET competition assay; format: nucleic-acid assay
[9] = tested on: Quadruplex DNA; assay: Binding affinity to FAM/TAMRA-labelled antiparallel TBA G4 DNA (unknown origin) assessed as thermal stabilization at 1 to 8 uM measured at 10 to 95 degreeC by FRET analysis; format: nucleic-acid assay; conditions: dose 1-8 µM
[10] = tested on: Quadruplex DNA; assay: Binding affinity to FAM/TAMRA-labelled parallel KRAS G4 DNA (unknown origin) assessed as thermal stabilization by measuring change in melting temperature at 2 uM in the presence of 100 equivalents of double stranded DNA by FRET competition assay; format: nucleic-acid assay
[11] = tested on: Quadruplex DNA; assay: Binding affinity to FAM/TAMRA-labelled antiparallel Bom17 G4 DNA (unknown origin) assessed as thermal stabilization at 1 to 8 uM measured at 10 to 95 degreeC by FRET analysis; format: nucleic-acid assay; conditions: dose 1-8 µM
[12] = Cytotoxicity against wildtype C57BL/6J mouse cancer activated fibroblast cells assessed as inhibition of cell growth incubated for 5 days by resazurin dye based fluorescence microscopic analysis; format: toxicity
[13] = tested on: Quadruplex DNA; assay: Binding affinity to FAM/TAMRA-labelled c-KIT1 G4 DNA (unknown origin) assessed as thermal stabilization at 1 to 8 uM measured at 10 to 95 degreeC by FRET analysis; format: nucleic-acid assay; conditions: dose 1-8 µM
[14] = tested on: Quadruplex DNA; assay: Binding affinity to FAM/TAMRA-labelled 21g G4 DNA (unknown origin) assessed as thermal stabilization at 1 to 8 uM measured at 10 to 95 degreeC by FRET analysis; format: nucleic-acid assay; conditions: dose 1-8 µM
[15] = target: Quadruplex DNA; assay: Binding affinity to 5'-Cy5-labelled parallel c-MYC Pu24T G4 DNA (unknown origin) assessed as dissociation constant by MST analysis; format: nucleic-acid assay
[16] = tested on: Quadruplex DNA; assay: Binding affinity to FAM/TAMRA-labelled parallel 25ceb G4 DNA (unknown origin) assessed as thermal stabilization at 1 to 8 uM measured at 10 to 95 degreeC by FRET analysis; format: nucleic-acid assay; conditions: dose 1-8 µM
[17] = tested on: Quadruplex DNA; assay: Binding affinity to parallel c-MYC Pu24T G4 DNA (unknown origin) assessed as thermal stabilization by measuring change in melting temperature at 5 uM measured at 1:1 DNA to ligand ratio by CD spectra analysis; format: nucleic-acid assay
[18] = tested on: Quadruplex DNA; assay: Binding affinity to FAM/TAMRA-labelled parallel KRAS G4 DNA (unknown origin) assessed as thermal stabilization in the presence of 15 equivalents of double stranded DNA by FRET competition assay; format: nucleic-acid assay
[19] = tested on: Quadruplex DNA; assay: Binding affinity to FAM/TAMRA-labelled parallel KRAS G4 DNA (unknown origin) assessed as thermal stabilization at 1 to 8 uM measured at 10 to 95 degreeC by FRET analysis; format: nucleic-acid assay; conditions: dose 1-8 µM

With Cc1cc(N2CCOCC2)nc(Nc2nc(C)c3ccc4c(c3n2)CCC4)n1 the Activity [1] was “inactive”.
In the case of Cc1cc(NCCCN)nc(Nc2nc(C)c3ccc4c(c3n2)CCCC4)n1, the Activity [1] is reported as “inactive” and the Activity [2] is reported as “Active”.
For Cc1cc(NCCCN2CCCC2)nc(Nc2nc(C)c3ccc4c(c3n2)CCC4)n1, the Activity [3] was “Active”, the Activity [4] was “inactive” and the Activity [5] was “Active”. For the same compound, the Activity [6] was “Active”, the IC50 [7] was 0.161 µM and the ΔTm [8] was 7 °C. For the same compound, the Activity [9] was “inactive”, the Activity [1] was “inactive” and the ΔTm [10] was 10 °C. The Activity [11] was “inactive”, the IC50 at 5 days [12] was 2.52 µM and the Activity [13] was “Active”. The Activity [14] was “Active”, the Kd [15] was 0.275 µM and the Activity [16] was “inactive”. For the same compound, the ΔTm [17] was 5 °C, the Activity [2] was “Active” and the Activity [18] was “Active”.
In the case of Cc1cc(NCCN2CCN(C)CC2)nc(Nc2nc(C)c3ccc4c(c3n2)CCC4)n1, the IC50 [7] is reported as 0.547 µM, the Activity [1] is reported as “inactive” and the Activity [19] is reported as “Active”. The IC50 at 5 days [12] was > 0.5 µM and the Activity [2] was “Active”.
With CCN(CC)c1cc(C)nc(Nc2nc(C)c3ccc4c(c3n2)CCCC4)n1 the Activity [1] was “inactive” and the Activity [2] was “Active”.
With Cc1cc(NCCN2CCN(C)CC2)nc(Nc2nc(C)c3ccc4c(c3n2)CCCC4)n1 the Activity [1] was “inactive”, the Activity [19] was “Active” and the Activity [2] was “Active”.
With Cc1cc(NCCN2CCOCC2)nc(Nc2nc(C)c3ccc4c(c3n2)CCC4)n1 the Activity [1] was “inactive”.
With CCN(CC)CCNc1cc(C)nc(Nc2nc(C)c3ccc4c(c3n2)CCCC4)n1 the Activity [1] was “inactive” and the Activity [2] was “Active”.
For Cc1cc(N2CCN(c3ncccn3)CC2)nc(Nc2nc(C)c3ccc4c(c3n2)CCC4)n1, the Activity [1] was “inactive”, the Activity [19] was “inactive” and the Activity [2] was “inactive”.
With CCN(CC)c1cc(C)nc(Nc2nc(C)c3ccc4c(c3n2)CCC4)n1 the Activity [1] was “inactive”.
For Cc1cc(N2CCNCC2)nc(Nc2nc(C)c3ccc4c(c3n2)CCCC4)n1, the Activity [1] was “inactive”, the Activity [19] was “Active” and the Activity [2] was “Active”.
With Cc1cc(NCCCN2CCCCC2)nc(Nc2nc(C)c3ccc4c(c3n2)CCCC4)n1 the Activity [3] was “Active”, the Activity [4] was “inactive” and the Activity [5] was “Active”. For the same compound, the Activity [6] was “Active”, the ΔTm [8] was 7 °C and the Activity [9] was “inactive”. For the same compound, the Activity [1] was “inactive”, the ΔTm [10] was 10 °C and the Activity [11] was “inactive”. The Activity [13] was “Active”, the Activity [14] was “Active” and the Kd [15] was 0.175 µM. The Activity [16] was “inactive”, the ΔTm [17] was 5 °C and the Activity [2] was “Active”. For the same compound, the Activity [18] was “Active”.
For Cc1cc(NCCCN2CCN(C)CC2)nc(Nc2nc(C)c3ccc4c(c3n2)CCC4)n1, the Activity [3] was “Active”, the Activity [4] was “inactive” and the Activity [5] was “Active”. The Activity [6] was “Active”, the IC50 [7] was 0.211 µM and the ΔTm [8] was 7 °C. The Activity [9] was “inactive”, the Activity [1] was “inactive” and the ΔTm [10] was 10 °C. The Activity [11] was “inactive”, the IC50 at 5 days [12] was 0.264 µM and the Activity [13] was “Active”. For the same compound, the Activity [14] was “Active”, the Kd [15] was 0.265 µM and the Activity [16] was “inactive”. The ΔTm [17] was 5 °C, the Activity [2] was “Active” and the Activity [18] was “Active”.
With Cc1cc(N2CCN(C(=O)OC(C)(C)C)CC2)nc(Nc2nc(C)c3ccc4c(c3n2)CCC4)n1 the Activity [1] was “inactive”, the Activity [19] was “inactive” and the Activity [2] was “inactive”.
With Cc1cc(N2CCOCC2)nc(Nc2nc(C)c3ccc4c(c3n2)CCCC4)n1 the Activity [1] was “inactive”.

Source: ChEMBL document CHEMBL5321208, “The effect of side chain variations on quinazoline-pyrimidine G-quadruplex DNA ligands” (Eur J Med Chem, 2023)
